# Test results reported in EPA's ToxRefDB 2.
# Tests used:
# dog [1] = conditions: Subchronic oral toxicity in nonrodent, beagle, Capsule, dose end: 96 day, group: systemic, systemic / in life observation / body weight / body weight gain + systemic / in life observation / clinical signs / emaciation + systemic / …
# rat [2] = conditions: Sub-acute dermal toxicity, sprague dawley, Topical, dose end: 21 day, group: systemic
# rat [3] = conditions: Sub-acute repeat dose toxicity, sprague dawley, Oral, Gavage/Intubation, dose end: 1 month, group: systemic
# dog [4] = conditions: Chronic toxicity, beagle, Oral, Gavage/Intubation, dose end: 6 month, group: systemic
# rat [5] = conditions: Prenatal developmental toxicity study, sprague dawley, Oral, Gavage/Intubation, dose end: 17 GD
# rabbit [6] = conditions: Prenatal developmental toxicity study; new zealand white; Oral; Gavage/Intubation; dose end: 19 GD; group: maternal; reproductive / reproductive performance / postimplantation loss / postimplantation loss + reproductive / reproductive performance / …
# rat [7] = conditions: Prenatal developmental toxicity study, sprague dawley, Oral, Gavage/Intubation, dose end: 17 GD; remark: listed apart in the source
# rat [8] = conditions: Fertility (Segment I), sprague dawley, Oral, Gavage/Intubation, dose end: 7 GD
# rat [9] = conditions: Chronic toxicity, sprague dawley, Oral, Gavage/Intubation, dose end: 6 month, group: systemic
# dog [10] = conditions: Sub-acute repeat dose toxicity, beagle, Oral, Gavage/Intubation, dose end: 1 month, group: systemic
# rat [11] = conditions: Fertility (Segment I), sprague dawley, Oral, Gavage/Intubation, dose end: 7 GD; remark: listed apart in the source
# rabbit [12] = conditions: Prenatal developmental toxicity study; new zealand white; Oral; Gavage/Intubation; dose end: 19 GD; group: maternal; reproductive / reproductive performance / resorptions / resorptions + systemic / in life observation / body weight / body weight gain + …
# rat [13] = conditions: Prenatal developmental toxicity study, sprague dawley, Oral, Gavage/Intubation, dose end: 17 GD, group: maternal
# [14] = systemic / in life observation / clinical signs / erythema
# [15] = systemic / clinical chemistry / alanine aminotransferase (alt/sgpt) / alanine aminotransferase (alt/sgpt) + systemic / clinical chemistry / …
# [16] = systemic / in life observation / body weight / body weight + systemic / organ weight / thymus / absolute + systemic / organ weight / thymus…
# [17] = group: developmental, systemic / in life observation / body weight / fetal weight
# [18] = group: maternal, reproductive / reproductive performance / aborted / aborted + reproductive / reproductive performance / gestation index / gestation index + …
# [19] = group: maternal, reproductive / reproductive performance / aborted / aborted + reproductive / reproductive performance / postimplantation loss / …
# [20] = group: maternal, reproductive / reproductive performance / estrous cycle / corpora lutea + reproductive / reproductive performance / implantations / …
# [21] = group: parental, systemic / in life observation / body weight / body weight gain + systemic / in life observation / food consumption / food consumption
# [22] = systemic / pathology gross / uterus / dilatation
# [23] = systemic / pathology microscopic / parathyroid gland / adenoma + systemic / clinical chemistry / alanine aminotransferase (alt/sgpt) / …
# [24] = systemic / hematology / erythrocyte (rbc) count differential / erythrocyte (rbc) + systemic / hematology / hematocrit (hct) / hematocrit (…
# [25] = group: maternal, reproductive / reproductive performance / estrous cycle / abnormal + reproductive / reproductive performance / estrous cycle / corpora lutea…
# [26] = group: parental, systemic / in life observation / body weight / body weight + systemic / in life observation / body weight / body weight gain + systemic / in…
# [27] = systemic / in life observation / body weight / body weight gain + systemic / in life observation / food consumption / food consumption
# [28] = systemic / in life observation / body weight / body weight gain + systemic / in life observation / food consumption / food consumption + …
smiles,measurement,setting,value
CCCCCCCCCCCCN=C(N)N [Dodecylguanidine],LEL,dog [1],100 mg/kg/day
same,LOAEL,dog [1],100 mg/kg/day
same,NEL,dog [1],25 mg/kg/day
same,NOAEL,dog [1],25 mg/kg/day
same,LOAEL,rat [2]; systemic / in life observation / body weight / body weight gain,50 mg/kg/day
same,NOAEL,rat [2]; systemic / in life observation / body weight / body weight gain + systemic / in life observation / clinical signs / desquamation + systemic…,25 mg/kg/day
same,LEL,rat [2]; [14],12.5 mg/kg/day
same,NEL,rat [2]; [14],< 12.5 mg/kg/day
CN(C)C(=O)NC1(c2ccccc2)CCN(CCC[C@]2(c3ccc(Cl)c(Cl)c3)CCCN(C(=O)c3ccccc3)C2)CC1,LOAEL,rat [3]; [15],> 250 mg/kg/day
same,NEL,rat [3]; [15],25 mg/kg/day
same,NOAEL,rat [3]; [15],≥ 250 mg/kg/day
same,LEL,rat [3]; systemic / pathology gross / mammary gland / [other],75 mg/kg/day
same,LOAEL,dog [4]; [15],> 90 mg/kg/day
same,NOAEL,dog [4]; [15],≥ 90 mg/kg/day
same,LEL,dog [4]; [16],10 mg/kg/day
same,NEL,dog [4]; [16],< 10 mg/kg/day
same,LEL,rat [5]; [17],200 mg/kg/day
same,LOAEL,rat [5]; [17],> 200 mg/kg/day
same,NEL,rat [5]; [17],75 mg/kg/day
same,NOAEL,rat [5]; [17],≥ 200 mg/kg/day
same,LEL,rat [5]; [18],200 mg/kg/day
same,LOAEL,rat [5]; [18],200 mg/kg/day
same,NEL,rat [5]; [18],75 mg/kg/day
same,NOAEL,rat [5]; [18],75 mg/kg/day
same,LEL,rabbit [6],50 mg/kg/day
same,LOAEL,rabbit [6],> 100 mg/kg/day
same,NEL,rabbit [6],< 50 mg/kg/day
same,NOAEL,rabbit [6],≥ 100 mg/kg/day
same,LEL,rat [7]; [17],250 mg/kg/day
same,LOAEL,rat [7]; [17],> 250 mg/kg/day
same,NEL,rat [7]; [17],< 250 mg/kg/day
same,NOAEL,rat [7]; [17],≥ 250 mg/kg/day
same,LEL,rat [7]; [19],250 mg/kg/day
same,LOAEL,rat [7]; [19],> 250 mg/kg/day
same,NEL,rat [7]; [19],< 250 mg/kg/day
same,NOAEL,rat [7]; [19],≥ 250 mg/kg/day
same,LEL,rat [8]; [20],150 mg/kg/day
same,LOAEL,rat [8]; [20],> 150 mg/kg/day
same,NEL,rat [8]; [20],75 mg/kg/day
same,NOAEL,rat [8]; [20],≥ 150 mg/kg/day
same,LEL,rat [8]; [21],150 mg/kg/day
same,LOAEL,rat [8]; [21],> 150 mg/kg/day
same,NEL,rat [8]; [21],75 mg/kg/day
same,NOAEL,rat [8]; [21],≥ 150 mg/kg/day
same,LEL,rat [9]; [22],25 mg/kg/day
same,NEL,rat [9]; [22],< 25 mg/kg/day
same,LOAEL,rat [9]; [23],> 250 mg/kg/day
same,NOAEL,rat [9]; [23],≥ 250 mg/kg/day
same,LOAEL,dog [10]; [15],> 360 mg/kg/day
same,NOAEL,dog [10]; [15],≥ 360 mg/kg/day
same,LEL,dog [10]; [24],40 mg/kg/day
same,NEL,dog [10]; [24],< 40 mg/kg/day
same,LOAEL,rat [11]; [25],> 250 mg/kg/day
same,NEL,rat [11]; [25],75 mg/kg/day
same,NOAEL,rat [11]; [25],≥ 250 mg/kg/day
same,LEL,rat [11]; [20],150 mg/kg/day
same,LOAEL,rat [11]; [26],> 250 mg/kg/day
same,NOAEL,rat [11]; [26],≥ 250 mg/kg/day
same,LEL,rat [11]; [21],75 mg/kg/day
same,NEL,rat [11]; [21],< 75 mg/kg/day
same,LEL,rabbit [12],75 mg/kg/day
same,LOAEL,rabbit [12],> 75 mg/kg/day
same,NEL,rabbit [12],25 mg/kg/day
same,NOAEL,rabbit [12],≥ 75 mg/kg/day
same,LEL,rat [13]; [27],100 mg/kg/day
same,LOAEL,rat [13]; [27],100 mg/kg/day
same,NEL,rat [13]; [28],50 mg/kg/day
same,NOAEL,rat [13]; [28],50 mg/kg/day
